# According to US5637619A, “Antitumor 2-aminocarbonyl-1, 2-bis(methylsulfonyl)-1-(substituted)hydrazines” (Yale University, priority 1995, dated 1997):
# Where two headings read alike, the source gives them in different places.
# Tests used:
# glutathione reductase = settings: cited from earlier work
# thioredoxin reductase = settings: cited from earlier work
# ribonucleotide reductase = settings: cited from earlier work
# [1] = test system: glutathione S-transferase mu isoenzymes; settings: rat isoenzymes; cited from earlier work
# [2] = test system: M5076 reticulum cell sarcoma; assay: M5076 reticulum cell sarcoma, sc implanted; assay type: in vivo, C57BL/6 mice; settings: iv every fourth day × 3 (same treatment schedule as MeCCNU)
# Experimental: (§1) The M5076 reticulum cell sarcoma was passaged biweekly by sc transfer of tumor fragments into C57BL/6 mice, and the M109 lung carcinoma was similarly passaged in BALB/c mice. The LX-1 human lung carcinoma was passaged sc every two to three weeks in BALB/c-background athymic (nu/nu) mice. For use in these systems, compound III was dissolved in: (a) 100% DMSO and administered by iv injection in a fixed volume of 10 microliters; or (b) DMSO diluted with saline to a final concentration of 10% DMSO and administered iv in a volume of 0.01 milliliter/g of body weight. […] Mitomycin C and cyclophosphamide were dissolved and administered in saline. BCNU and MeCCNU were dissolved in ethanol and diluted 1:9 (v/v) with water prior to administration.
# (§2) Five mice per group were employed in experiments with the B16F10 melanoma, and 8 mice per group with the M5076 sarcoma, the M109 carcinoma and the LX-1 carcinoma. A minimum of two dose levels per compound were included in each evaluation and drug therapy was initiated 24 h after tumor implantation for the M5076 sarcoma and M109 carcinoma. In the LX-1 experiment, tumor bearing mice were selected and sorted into treatment and control groups on day 6 post-tumor implant such that all tumor weights ranged from 50-100 mg and median tumor weights per group were reasonably similar. Therapeutic results are presented in terms of: (a) increases in lifespan reflected by the relative median survival time (MST) of treated versus control groups (i.e., %T/C values), and by long-term survivors, and (b) primary tumor growth inhibition (i.e., T-C values) determined by calculating the relative median times for treated (T) and control untreated (C) mice to grow tumors of a 0.5 g size for the LX-1 carcinoma or a 1 g size for the murine neoplasms. Tumor weights were interchangeable with tumor size on the basis of 1 mm^3 =1 mg. […] The activity criterion for tumor inhibition was a delay in tumor growth consistent with one log10 cell kill (LCK). The absolute T-C value needed to attain this level of efficacy varied from experiment to experiment and depended upon the tumor volume doubling time of the control mice in each study. Treated mice dying prior to day 10 in the ip M109 experiment, or dying before their tumors achieved 0.5 g for the LX-1 carcinoma or 1 g in size for all other sc tumor models, were considered to have died from drug toxicity. Groups of mice with more than one death due to drug toxicity were not used in the evaluation of antitumor efficacy. Statistical evaluations of data were performed using Gehan's generalized Wilcoxan test (Gehan, Biometrika, 1965, 52, 203-233).
# Compound III was also evaluated against the M5076 reticulum cell sarcoma implanted sc. When administered iv at a level of 48 mg/kg per injection in 100% DMSO every other day for five days, compound III cured 6 out of 8 mice and consequently, no median time (T-C value) to reach 1 gram size tumors was expressed for this group. Tumor growth in mice receiving only 100% DMSO was indistinguishable from that of untreated control animals. 1-(2-Chloroethyl)-3-(4-methylcyclohexyl)-1-nitrosourea (MeCCNU) and BCNU were included in this experiment for comparison. The former achieved a maximum %T/C of 128 and a delay in tumor growth of 33.5 days at 16 mg/kg per injection administered iv every fourth day for three total injections, while BCNU, administered iv on the same treatment schedule, produced a %T/C in excess of 157, with 2 out of 8 cures, and a T-C of >62 days (data not shown).
# [3] = test system: glutathione S-transferase mu isoenzymes; settings: human isoenzymes; cited from earlier work
# liver microsomal enzymes = settings: NADPH-dependent; cited from earlier work
# [4] = test system: LX-1 human lung carcinoma; assay: LX-1 human lung carcinoma xenograft, sc in athymic mice; assay type: in vivo, human tumor in athymic (nu/nu) mice; settings: 20 mg/kg per injection (optimum), iv every fourth day × 3
# Experimental: as §1, §2
# The human lung tumor, LX-1, xenografted sc in athymic mice, was also used to examine the antineoplastic potential of compound III. […]
# [5] = test system: NADPH:cytochrome P450 reductase; settings: cited from earlier work
# [6] = test system: mammary MX-1 human tumor xenografts; settings: subrenal capsule, athymic mice; cited from earlier work
# [7] = test system: colon CX-1 human tumor xenografts; settings: subrenal capsule, athymic mice; cited from earlier work
# [8] = Body weight change / toxicity in L1210-bearing mice; assay type: in vivo, mice (CD2F1); settings: for Av. Wt. Change %: L1210-bearing mice
# Experimental: (§3) Leukemia L1210 cells were obtained from the Frederick Cancer Research Facility, Division of Cancer Treatment Tumor Repository of the National Cancer Institute, and were maintained by serial passage in tissue culture. Every 8 weeks, tumor cells were injected intraperitoneally into five donor CD2 F1 mice 8- to 10- weeks of age and were allowed to grow for 7 days. The peritoneal fluid was withdrawn and the suspension was centrifuged for 5 min at 1600 g. The supernatant was decanted and 10^5 cells/mL were seeded into 10 mL of RPMI 1640 medium supplemented with 10% fetal bovine serum and 1% L-glutamine, and once again maintained in culture. To assay for antineoplastic activity, 0.1 mL of the cell suspension containing 10^5 L1210 leukemia cells was injected ip into each recipient mouse. Test compounds were administered over a wide range of dosage levels, beginning 24 h after tumor implantation, and continued once daily for 6 consecutive days. All drugs were administered ip as a solution in 100% dimethylsulfoxide (DMSO), in a volume not exceeding 0.025 mL. […] Mice were weighed during the course of the experiments, and the percentage change in body weight from onset to termination of therapy was used as an indication of drug toxicity. Determination of the sensitivity of neoplasms to these agents was based upon the prolongation of survival time afforded by the drug treatments.
# (§4) ^a Administered ip once daily for six consecutive days, beginning 24 hours after tumor implantation, with 5-10 mice being used per group. ^b Average percent change in body weight from onset to termination of therapy. ^c % T/C=average survival time of treated/control mice×100; cures (>60-day survivors) are listed separately and are not included in this calculation.
# B16F10 melanoma = assay: B16F10 melanoma, tumor growth delay in mice; assay type: in vivo, C57BL/6 mice; settings: 100% DMSO
# Experimental: B16F10 melanoma cells were grown in vitro as monolayers in minimum essential medium with Hank's salts supplemented with 10% fetal bovine serum and 1% 200 mM L-glutamine solution. Solid tumors were produced in C57BL/6 female mice 12- to 14-weeks of age by the intradermal injection in the right flank of each mouse of 0.1 mL of a cell suspension containing 10^6 B16F10 cells/mL from freshly trypsinized cultures. After 10-12 days, animals bearing approximately 100 mm^3 tumors were treated ip with compound III or IV dissolved in 100% DMSO for 6 consecutive days, and tumor volumes were measured on alternate days until reaching 1000 mm^3.
# as §2
# In addition, both compounds III and IV were evaluated in 100% DMSO against the B16F10 melanoma implanted intradermally (id) in mice (Table III). In an initial experiment, compound IV produced a T-C of 15.5 days at a daily dosage level of 20 mg/kg administered once daily for six consecutive days beginning on day 10 post-implant. In the same experiment, using the same treatment schedule, a growth delay of 11 days was obtained with compound III. […] Thus, the aminocarbonyl component in this class of agents influences the magnitude of the antitumor effects obtained against the B16F10 melanoma.
# L1210 leukemia = L1210 leukemia survival time in mice (ip implanted); assay type: in vivo, mice (CD2F1)
# Experimental: as §3, §4
# M109 lung carcinoma [9] = settings: as reported earlier (J. Med. Chem. 1993, 36, 3496); cited from earlier work
# M109 lung carcinoma [10] = settings: 60 mg/kg per injection, highest dosage level, ip q4d × 3; different experiment; cited from earlier work
# [11] = test system: M5076 reticulum cell sarcoma; settings: compared with compound III or BCNU; cited from earlier work
# [12] = chloroethylating agent with no carbamoylating activity; cited from earlier work
smiles,measurement,setting,value
"O=NN(CCCl)C(=O)NCCCl [BCNU, 1,3-bis(2-chloroethyl)-1-nitrosourea]",inhibition of glutathione reductase (in words),glutathione reductase,inhibit glutathione reductase
same,inhibition of thioredoxin reductase (in words),thioredoxin reductase,"inhibit glutathione reductase, ribonucleotide reductase and thioredoxin reductase"
same,inhibition of ribonucleotide reductase (in words),ribonucleotide reductase,"inhibit glutathione reductase, ribonucleotide reductase"
same,glutathione-dependent denitrosation (in words),[1],undergo glutathione-dependent denitrosation
same,%T/C,[2],> 157%
same,T-C,[2],> 62 days
same,cures,[2],2 out of 8
same,glutathione-dependent denitrosation (in words),[3],undergo glutathione-dependent denitrosation
same,inactivation by denitrosation (in words),liver microsomal enzymes,inactivated by denitrosation by liver microsomal enzymes
same,T-C,[4],11.8 days
same,log10 cell kill (LCK),[4],1.3 LCK
"O=NN(CCCl)C(=O)NC1CCCCC1 [CCNU, 1-(2-chloroethyl)-3-cyclohexyl-1-nitrosourea]",denitrosation (in words),[5],catalyzed by NADPH:cytochrome P450 reductase
CNC(=O)ON(C(C)=O)C(=O)NC [Caracemide],antitumor activity (in words),[6],active
same,antitumor activity (in words),[7],active
"CNC(=O)N(N(CCCl)S(C)(=O)=O)S(C)(=O)=O [Compound IV, 1,2-Bis(methylsulfonyl)-1-(2-chloroethyl)-2-methylaminocarbonylhydrazine]",Av. Wt. Change %,[8]; 5 mg/kg ip once daily × 6,+9.9%
same,body weight loss (in words),[8]; 5 mg/kg × 6,no body weight loss
same,Av. Wt. Change %,[8]; 10 mg/kg ip once daily × 6,-5.6%
same,Av. Wt. Change %,[8]; 15 mg/kg ip once daily × 6,-2.1%
same,loss of body weight,[8]; 10 and 15 mg/kg × 6,< 6%
same,T-C,"B16F10 melanoma; experiment a, 10 mg/kg/injection, qd × 6 from day 10, ip",5.0 days
same,"T-C, growth delay","B16F10 melanoma; experiment a, 20 mg/kg/injection, qd × 6 from day 10, ip",15.5 days
same,T-C,"B16F10 melanoma; experiment b, 20 mg/kg/injection, qd × 6 from day 12, ip",10.0 days
same,"T-C, growth delay","B16F10 melanoma; experiment b, 30 mg/kg/injection, qd × 6 from day 12, ip",25.5 days
same,% 60 Day Survivors (cures),L1210 leukemia; 5 mg/kg ip once daily × 6,40%
same,%T/C (average survival time treated/control × 100),"L1210 leukemia; 5 mg/kg ip once daily × 6, cures not included",234%
same,% 60 Day Survivors (cures),L1210 leukemia; 10 mg/kg ip once daily × 6,100%
same,% 60 Day Survivors (cures),L1210 leukemia; 15 mg/kg ip once daily × 6,100%
same,antileukemic activity / therapeutic potential (in words),"L1210 leukemia; qualitative, L1210 leukemia in mice",much better therapeutic potential than the amino acid ester derivatives
CC(=O)N(N(CCCl)S(C)(=O)=O)S(C)(=O)=O [X],maximum %T/C,M109 lung carcinoma [9],136%
same,maximum T-C value,M109 lung carcinoma [9],14.5 days
same,%T/C (median survival time),M109 lung carcinoma [10],231%
same,activity against M5076 (in words),[11],much less active than compound III or BCNU
CS(=O)(=O)CS(=O)(=O)OCCCl [clomesone],antineoplastic activity (in words),[12],excellent antineoplastic activity
